# Measured values: US20160193219A1, “SUBSTITUTED 2,3-DIHYDROIMIDAZO[1,2-C]QUINAZOLINE SALTS” (priority 2011, published 2016)
# Like-named read-outs stand apart in the source and are kept apart here.
# Legend:
# PC3 = test: Proliferation assay (Cell Titer-Glo, 72 h), PC3; settings: Homo sapiens, PC-3, 72 h, PC3, Prostate
# HT29 = test: Proliferation assay (Cell Titer-Glo, 72 h), HT29; settings: HT29, Colon, listed as free base
# KPL4 = test: Proliferation assay (Cell Titer-Glo, 72 h), KPL4; settings: KPL4, 72 h
# MDA-MB-468 = test: Proliferation assay (Cell Titer-Glo, 72 h), MDA-MB-468; settings: MDA-MB-468, Breast, listed as free base
# LNCaP = test: Proliferation assay (Cell Titer-Glo, 72 h), LNCaP; settings: Homo sapiens, 72 h, Prostate
# A549 = test: Proliferation assay (Cell Titer-Glo, 72 h), A549; settings: Homo sapiens, A549, 72 h, A549, Lung
# MCF7 = test: Proliferation assay (Cell Titer-Glo, 72 h), MCF7; settings: MCF7, Breast, listed as free base
# U87MG = test: Proliferation assay (Cell Titer-Glo, 72 h), U87MG; settings: Homo sapiens, U-87 MG
# SK-Br-3 = test: Proliferation assay (Cell Titer-Glo, 72 h), SK-Br-3; settings: Homo sapiens, SK-BR-3, 72 h, SK-Br-3, Breast
# T47D = test: Proliferation assay (Cell Titer-Glo, 72 h), T47D; settings: Breast, listed as free base
# BT20 = test: Proliferation assay (Cell Titer-Glo, 72 h), BT20; settings: BT20, Breast, listed as free base
# Colo205 = test: Proliferation assay (Cell Titer-Glo, 72 h), Colo205; settings: Colo205, Colon, listed as free base
# [1] = Stability as solid (stored at 90° C. for 1 week, HPLC); assay type: physicochemical
# 786O = test: Proliferation assay (Cell Titer-Glo, 72 h), 786O; settings: Kidney, listed as free base
# BT474 = test: Proliferation assay (Cell Titer-Glo, 72 h), BT474; settings: Homo sapiens, BT-474, 72 h, BT474, Breast
# H460 = test: Proliferation assay (Cell Titer-Glo, 72 h), H460; settings: Homo sapiens, NCI-H460, 72 h, H460, Lung
# HCT116 = test: Proliferation assay (Cell Titer-Glo, 72 h), HCT116; settings: Homo sapiens, HCT-116, 72 h, HCT116, Colon
structure (smiles),measurement,setting,value
"COc1c(OCCCN2CCOCC2)ccc2c1N=C(NC(=O)c1cnc(N)nc1)N1CCN=C21 [compound of formula (I), 2-amino-N-[7-methoxy-8-(3-morpholin-4-ylpropoxy)-2,3-dihydroimidazo[1,2-c]quinazolin-5-yl]pyrimidine-5-carboxamide]",IC50,PC3,100 nM
same,IC50,HT29,27 nM
same,IC50,KPL4,3 nM
same,IC50,MDA-MB-468,760 nM
same,IC50,LNCaP,69 nM
same,IC50,A549,37 nM
same,IC50,MCF7,27 nM
same,IC50,U87MG,85 nM
same,Appearance,"0.1M HCl, 1 week, 25° C.",slightly colored solution
same,"Organic impurities, single","0.1M HCl, 1 week, 25° C.",7.15 Area %
same,"Organic impurities, sum of all","0.1M HCl, 1 week, 25° C.",24.27 Area %
same,Appearance,"0.1M HCl, 1 week, 70° C.",slightly colored solution
same,"Organic impurities, single","0.1M HCl, 1 week, 70° C.",25.48 Area %
same,"Organic impurities, sum of all","0.1M HCl, 1 week, 70° C.",100.00 Area %
same,Appearance,"0.1M HCl, 24 h, 25° C.",slightly colored solution
same,"Organic impurities, single","0.1M HCl, 24 h, 25° C.",1.90 Area %
same,"Organic impurities, sum of all","0.1M HCl, 24 h, 25° C.",8.75 Area %
same,Appearance,"0.1M HCl, 24 h, 70° C.",slightly colored solution
same,"Organic impurities, single","0.1M HCl, 24 h, 70° C.",22.82 Area %
same,"Organic impurities, sum of all","0.1M HCl, 24 h, 70° C.",92.49 Area %
same,Appearance,"0.1M HCl, Initial",slightly colored solution
same,"Organic impurities, single","0.1M HCl, Initial",1.13 Area %
same,"Organic impurities, sum of all","0.1M HCl, Initial",5.87 Area %
same,Appearance,"0.1M NaOH, 1 week, 25° C.",slightly colored solution
same,"Organic impurities, single","0.1M NaOH, 1 week, 25° C.",22.03 Area %
same,"Organic impurities, sum of all","0.1M NaOH, 1 week, 25° C.",86.64 Area %
same,Appearance,"0.1M NaOH, 1 week, 70° C.",slightly colored solution
same,"Organic impurities, single","0.1M NaOH, 1 week, 70° C.",32.63 Area %
same,"Organic impurities, sum of all","0.1M NaOH, 1 week, 70° C.",99.90 Area %
same,Appearance,"0.1M NaOH, 24 h, 25° C.",slightly colored solution
same,"Organic impurities, single","0.1M NaOH, 24 h, 25° C.",10.02 Area %
same,"Organic impurities, sum of all","0.1M NaOH, 24 h, 25° C.",45.40 Area %
same,Appearance,"0.1M NaOH, 24 h, 70° C.",slightly colored solution
same,"Organic impurities, single","0.1M NaOH, 24 h, 70° C.",23.94 Area %
same,"Organic impurities, sum of all","0.1M NaOH, 24 h, 70° C.",99.88 Area %
same,Appearance,"0.1M NaOH, Initial",slightly colored solution
same,"Organic impurities, single","0.1M NaOH, Initial",6.51 Area %
same,"Organic impurities, sum of all","0.1M NaOH, Initial",30.72 Area %
same,Appearance,"Buffer pH 7, 1 week, 25° C.",slightly colored turbid
same,"Organic impurities, single","Buffer pH 7, 1 week, 25° C.",0.82 Area %
same,"Organic impurities, sum of all","Buffer pH 7, 1 week, 25° C.",4.85 Area %
same,Appearance,"Buffer pH 7, 1 week, 70° C.",slightly colored solution
same,"Organic impurities, single","Buffer pH 7, 1 week, 70° C.",39.01 Area %
same,"Organic impurities, sum of all","Buffer pH 7, 1 week, 70° C.",97.65 Area %
same,Appearance,"Buffer pH 7, 24 h, 25° C.",slightly colored turbid
same,"Organic impurities, single","Buffer pH 7, 24 h, 25° C.",0.20 Area %
same,"Organic impurities, sum of all","Buffer pH 7, 24 h, 25° C.",3.22 Area %
same,Appearance,"Buffer pH 7, 24 h, 70° C.",slightly colored solution
same,"Organic impurities, single","Buffer pH 7, 24 h, 70° C.",23.25 Area %
same,"Organic impurities, sum of all","Buffer pH 7, 24 h, 70° C.",56.06 Area %
same,Appearance,"Buffer pH 7, Initial",slightly colored turbid
same,"Organic impurities, single","Buffer pH 7, Initial",0.23 Area %
same,"Organic impurities, sum of all","Buffer pH 7, Initial",3.15 Area %
same,Appearance,"Water, 1 week, 25° C.",slightly colored solution
same,"Organic impurities, single","Water, 1 week, 25° C.",0.54 Area %
same,"Organic impurities, sum of all","Water, 1 week, 25° C.",5.33 Area %
same,Appearance,"Water, 1 week, 70° C.",slightly colored solution
same,"Organic impurities, single","Water, 1 week, 70° C.",45.44 Area %
same,"Organic impurities, sum of all","Water, 1 week, 70° C.",98.59 Area %
same,Appearance,"Water, 24 h, 25° C.",slightly colored solution
same,"Organic impurities, single","Water, 24 h, 25° C.",0.23 Area %
same,"Organic impurities, sum of all","Water, 24 h, 25° C.",3.43 Area %
same,Appearance,"Water, 24 h, 70° C.",slightly colored solution
same,"Organic impurities, single","Water, 24 h, 70° C.",25.89 Area %
same,"Organic impurities, sum of all","Water, 24 h, 70° C.",58.00 Area %
same,Appearance,"Water, Initial",slightly colored solution
same,"Organic impurities, single","Water, Initial",0.25 Area %
same,"Organic impurities, sum of all","Water, Initial",2.79 Area %
same,IC50,SK-Br-3,2 nM
same,IC50,T47D,6 nM
same,IC50,BT20,6 nM
same,IC50,Colo205,48 nM
same,stability in solid form,[1],stable in solid form
same,therm. stab. solid,[1]; 1 w @ 90° C.,++
same,IC50,786O,116 nM
same,IC50,BT474,5 nM
same,IC50,H460,46 nM
same,IC50,HCT116,56 nM
